Results from article PMC7445743 (Journal of Medicinal Chemistry, 2020).
Structures can show the parent of a compound that is named as a salt.

Assays:
in vitro [1] = settings: mouse, plasma
PAK4 = PAK4 (Homo sapiens, UniProt O96013); settings: supplement CSV
in vitro [2] = settings: human, plasma
[3] = Microsome metabolism (MICs)
in vivo = settings: male, Crl:CD Sprague-Dawley, rat, iv, 2 mg/kg
PKNB(M.tuberculosis) = molecular target: T1, PKNB(M.tuberculosis) (Mycobacterium tuberculosis, UniProt P9WI81); experiment: KINOMEscan; format: binding
T1 construct: purchased DiscoverX (Eurofins) KINOMEscan scanMAX; first lines in-house DSF / ADP-Glo
T1 sequence (P9WI81 whole entry): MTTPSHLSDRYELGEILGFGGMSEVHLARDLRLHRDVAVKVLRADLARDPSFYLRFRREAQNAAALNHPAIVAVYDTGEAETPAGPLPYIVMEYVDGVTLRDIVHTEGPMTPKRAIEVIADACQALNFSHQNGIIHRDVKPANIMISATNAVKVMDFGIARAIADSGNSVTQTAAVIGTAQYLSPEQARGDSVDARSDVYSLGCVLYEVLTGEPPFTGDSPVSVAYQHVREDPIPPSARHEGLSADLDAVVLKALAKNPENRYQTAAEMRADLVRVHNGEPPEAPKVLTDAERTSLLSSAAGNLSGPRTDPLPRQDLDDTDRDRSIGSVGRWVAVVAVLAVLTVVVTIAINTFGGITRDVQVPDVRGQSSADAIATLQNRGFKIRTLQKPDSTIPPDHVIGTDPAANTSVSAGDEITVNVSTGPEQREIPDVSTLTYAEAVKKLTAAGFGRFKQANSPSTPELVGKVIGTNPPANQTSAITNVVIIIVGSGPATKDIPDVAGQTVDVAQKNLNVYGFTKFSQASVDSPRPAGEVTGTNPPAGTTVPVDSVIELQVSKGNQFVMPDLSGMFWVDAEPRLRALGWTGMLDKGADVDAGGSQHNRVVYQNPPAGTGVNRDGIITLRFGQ

[4] = Microsome metabolism (MICs); remark: listed apart in the source
[5] = Hepatocyte metabolism (Heps); format: in vitro ADME
CAMK1G = CAMK1G (Homo sapiens, UniProt Q96NX5); settings: supplement CSV
CAMK1G, sequence (Q96NX5 whole entry): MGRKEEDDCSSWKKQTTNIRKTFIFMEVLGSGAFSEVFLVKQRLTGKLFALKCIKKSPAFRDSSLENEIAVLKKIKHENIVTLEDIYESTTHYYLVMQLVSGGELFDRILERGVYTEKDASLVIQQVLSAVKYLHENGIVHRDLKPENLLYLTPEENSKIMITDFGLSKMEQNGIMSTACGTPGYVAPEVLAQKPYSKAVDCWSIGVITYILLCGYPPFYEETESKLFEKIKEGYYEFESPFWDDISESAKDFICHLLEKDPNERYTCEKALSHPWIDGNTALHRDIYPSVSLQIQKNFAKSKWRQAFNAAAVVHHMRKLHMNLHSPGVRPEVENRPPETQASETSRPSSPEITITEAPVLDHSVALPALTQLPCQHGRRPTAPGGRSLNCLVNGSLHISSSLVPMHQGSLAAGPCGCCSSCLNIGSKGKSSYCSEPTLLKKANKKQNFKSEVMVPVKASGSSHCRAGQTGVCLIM

NGS mice = experiment: Tolerability study in NGS mice; format: in vivo; settings: 40 mg/kg once daily for 21 days, 50:45:5 PEG400/water/ethanol
in vitro [6] = settings: rat, plasma
[7] = system: kinase panel (468 Assays Tested); experiment: Pan-kinome selectivity, competitive binding assay (KINOMEscan); settings: for S-Score(35): 1 μM
[8] = Microsome metabolism (MICs); remark: listed apart in the source
[9] = system: diet induced obesity mouse model; experiment: OGTT in DIO mice, chronic (14 day) dosing study; format: in vivo, male C57Bl/6J mice; settings: twice daily for 14 days (25 mg/kg)
Experimental: Upon completion of the OGTT, all animals were singly housed with food provided as above for 2 weeks prior to the onset of the baseline phase of the chronic study. Upon single housing after the OGTT, mice were placed on a reverse-phase light–dark cycle (lights off 09:30–17:30). Following this period, the animals underwent a 5-day baseline phase where they were dosed twice daily with vehicle at approximately 08:45 and 16:45 each day. Toward the end of the baseline phase mice were reallocated to dosing groups (8 animals per group) such that groups within the study were balanced as closely as possible for body weight, food and water intake, and previous treatment. From day 1 onward, mice were dosed orally twice daily with 25 mg/kg 18 formulated in a vehicle of DMSO (10% final volume) and 20% (2-hydroxypropyl)-β-cyclodextrin (90% final volume) on days 1–6 and 1% methyl cellulose at 5 mL/kg on subsequent days or twice daily orally with vehicle alone or subcutaneously with 0.1 mg/kg liraglutide (Bachem) formulated in pH 7.4 phosphate buffer solution. Oral dosing began at approximately 08:45 and 16:45, with subcutaneous dosing at 08:45 only. […] Plasma glucose and insulin data from the OGTTs were analyzed by robust regression with treatment as a factor and bleeding order and day 1 body weight as covariates. […]

[10] = system: diet induced obesity mouse model; experiment: OGTT in DIO mice, acute dosing study; format: in vivo, male C57Bl/6J mice; settings: single oral dose of 25 or 50 mg/kg 4 h prior to OGTT, vs vehicle
Experimental: Animals were allocated to dosing groups (6 mice per group) such that groups were balanced as closely as possible for mean body weight. The day prior to the OGTT, all animals were deprived of food (but not water) beginning approximately 16:45. The following morning, the mice were dosed with vehicle or either 10 mg/kg, 25 mg/kg, or 50 mg/kg 18 formulated in a vehicle of DMSO (10% final volume) and 20% (2-hydroxypropyl)-β-cyclodextrin (90% final volume) by the oral route (beginning at 08:45). Four hours after dosing, a blood sample was taken (B1), and 3 min later glucose was administered (2 g/kg orally). Further blood samples were taken 10, 30, 60, and 90 min after glucose administration. Between blood sampling, animals were returned to the home cage with free access to water (but not food). Blood samples (approximately 30 μL) were collected into lithium heparinized tubes (Sarstedt Microvette CB300LH), and plasma was separated by centrifugation to produce a single aliquot of plasma, which was frozen (approximately −80 °C) and subsequently assayed for glucose (in duplicate; Thermoelectron Infinity glucose reagent TR15498) and insulin (single replicate; Alpco mouse ultrasensitive insulin kit 80, INSMSU-E10).

SYK [11] = molecular target: T2, SYK (Homo sapiens, UniProt P43405); experiment: biochemical; settings: read-out: Tm shift SYK
SYK [12] = molecular target: T2, SYK; settings: supplement CSV
CAMK2A = CAMK2A (Homo sapiens, UniProt Q9UQM7); settings: supplement CSV
CAMK2A, sequence (Q9UQM7 whole entry): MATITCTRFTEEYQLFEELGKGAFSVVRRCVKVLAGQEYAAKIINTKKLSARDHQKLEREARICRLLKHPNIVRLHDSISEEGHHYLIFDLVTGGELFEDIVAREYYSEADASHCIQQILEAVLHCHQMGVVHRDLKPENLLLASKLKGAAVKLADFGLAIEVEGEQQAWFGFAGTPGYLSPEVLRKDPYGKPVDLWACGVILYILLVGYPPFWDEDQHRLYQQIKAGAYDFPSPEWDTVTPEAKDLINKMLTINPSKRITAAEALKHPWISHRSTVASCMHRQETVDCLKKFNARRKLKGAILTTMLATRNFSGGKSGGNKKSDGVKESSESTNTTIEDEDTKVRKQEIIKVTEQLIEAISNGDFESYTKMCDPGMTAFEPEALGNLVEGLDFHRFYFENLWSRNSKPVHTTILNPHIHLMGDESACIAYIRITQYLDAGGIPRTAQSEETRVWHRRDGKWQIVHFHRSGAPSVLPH

PAK4, sequence (O96013 whole entry): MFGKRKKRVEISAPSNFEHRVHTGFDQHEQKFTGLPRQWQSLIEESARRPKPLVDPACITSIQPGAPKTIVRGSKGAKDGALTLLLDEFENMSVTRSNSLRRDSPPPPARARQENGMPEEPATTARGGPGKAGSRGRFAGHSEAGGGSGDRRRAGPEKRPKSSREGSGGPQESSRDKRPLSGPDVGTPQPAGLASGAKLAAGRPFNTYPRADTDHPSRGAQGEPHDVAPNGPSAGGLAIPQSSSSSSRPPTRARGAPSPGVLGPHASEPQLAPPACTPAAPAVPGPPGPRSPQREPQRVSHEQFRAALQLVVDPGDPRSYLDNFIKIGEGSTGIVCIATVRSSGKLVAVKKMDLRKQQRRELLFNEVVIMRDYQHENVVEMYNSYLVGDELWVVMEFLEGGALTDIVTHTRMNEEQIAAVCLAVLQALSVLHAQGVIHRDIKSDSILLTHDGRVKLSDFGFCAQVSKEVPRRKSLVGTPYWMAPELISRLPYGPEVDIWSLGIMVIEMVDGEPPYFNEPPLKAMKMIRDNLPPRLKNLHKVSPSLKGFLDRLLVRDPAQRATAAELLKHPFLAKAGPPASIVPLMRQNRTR

Row | Compound | fraction unbound (in vitro [1]) | PAK4 Tm (PAK4) | fraction unbound (in vitro [2]) | rat MICs [3] [μL·min^–1·mg^–1] | clearance (in vivo) [mL/min/kg] | remaining binding at 1 µM (PKNB(M.tuberculosis)) [%] | human MICs [4] [μL·min^–1·mg^–1] | human Heps [5] [μL·min^–1 per 10^6 cells] | CAMK1G Tm (CAMK1G) | tolerability (NGS mice) | fraction unbound (in vitro [6]) | S-Score(35) [7] | mouse MICs [8] [μL·min^–1·mg^–1] | baseline glucose and insulin levels, peak glucose following OGTT [9] | glucose AUCB2 [9] | Interactions Mapped ([7]; 468 Assays Tested) | glucose control and insulin sensitivity in OGTT [10] | ΔTm at 10 µM (SYK [11]) [°C] | SYK Tm (SYK [12]) | CAMK2A Tm (CAMK2A)
1 | CC(C)c1cc(Nc2nc(N3CCC[C@H](N)C3)ncc2C(N)=O)cc(C(C)C)n1 [Compound 19, (S)-2-(3-Aminopiperidin-1-yl)-4-((2,6-diisopropylpyridin-4-yl)amino)pyrimidine-5-carboxamide] | 0.06 | 3.31 0C | 0.11 | 3 | 36.5 | 83 | 7 | 19 | 16.35 0C | no observable adverse effects | 0.08 | 0.03 | 6 |  |  |  |  |  |  | 
2 | CC(C)(C#N)c1cc(Nc2nc(N3CCC[C@H](N)C3)ncc2C(N)=O)cc(C(C)(C)C#N)c1 [Compound 18, (S)-2-(3-Aminopiperidin-1-yl)-4-((3,5-bis(2-cyanopropan-2-yl)phenyl)amino)pyrimidine-5-carboxamide Hydrochloride] |  |  |  | < 1 |  | 84 | 13 |  |  |  |  | 0.03 | 15 | reduced baseline glucose and insulin levels, as well as reduced peak glucose levels | no effect | 23 | improved glucose control and increased insulin sensitivity |  |  | 
3 | NC(=O)c1cnc(N2CCC[C@@H](N)C2)nc1Nc1cccc(C(F)(F)F)c1 [Compound 7, (R)-2-(3-Aminopiperidin-1-yl)-4-((3-(trifluoromethyl)phenyl)amino)pyrimidine-5-carboxamide Hydrochloride] |  |  |  |  |  |  |  |  | 6.58 0C |  |  |  |  |  |  |  |  | 6.82 | 6.82 0C | 1.17 0C
